Data taken from ChEMBL document CHEMBL1201862, “PubChem BioAssay data set” (2004).
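Exposure lasted 48 hours, with cells grown in 96-well plates and compounds tested at five concentrations. GI50 marks 50% less growth.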 Activity calls are given as the source filed them. Cut-off read from the data, not from the text of the source: active = GI50 up to about 1.1 µM and inactive = higher.

What was measured:
Experiment in all cases: NCI anticancer screen, dose series, 48 h
MCF7 = tested on: MCF7
Hs-578T = tested on: Hs-578T
Malme-3M = tested on: Malme-3M
DMS-114 = tested on: DMS-114
DMS-273 = tested on: DMS-273
XF498 = tested on: XF498
KM-20L2 = tested on: KM-20L2
RXF 631 = tested on: RXF 631

Row | Structure (SMILES) | GI50 (MCF7) | GI50 (Hs-578T) | GI50 (Malme-3M) | GI50 (DMS-114) | GI50 (DMS-273) | GI50 (XF498) | GI50 (KM-20L2) | GI50 (RXF 631)
1 | Cc1ccc(S(=O)(=O)NCCSS(=O)(=O)c2ccc(C)cc2)cc1 | 22.3 µM (inactive) | 96.4 µM (inactive) | – | – | – | – | – | –
2 | O=C(CCCn1cnc([N+](=O)[O-])n1)NCCn1ccnc1[N+](=O)[O-] | > 100 µM (inactive) | > 100 µM (inactive) | – | – | – | – | – | –
3 | Nc1nc2ccc3ccccc3c2[nH]1 | > 10 µM (inactive) | > 10 µM (inactive) | > 10 µM (inactive) | – | – | – | – | –
4 | CN(C)CCOc1cc2c(c3ccccc13)-c1ccccc1C2O (stereo unspecified) | 12.8 µM (inactive) | – | 18.2 µM (inactive) | 11.7 µM (inactive) | 15 µM (inactive) | 12.9 µM (inactive) | 15.6 µM (inactive) | –
5 | COc1cc([C@@H]2c3cc4c(cc3[C@H](O)[C@H]3COC(=O)[C@H]23)OCO4)cc(OC)c1OC [PODOFILOX] | < 0.005 µM (active) | < 0.005 µM (active) | 3.01 µM (inactive) | 0.01 µM (active) | 0.01 µM (active) | 0.0354 µM (active) | – | –
6 | COC(=O)CN(C)P(=O)(N1CC1)N1CC1 | – | – | > 100 µM (inactive) | 55.1 µM (inactive) | > 100 µM (inactive) | – | > 100 µM (inactive) | > 100 µM (inactive)
7 | CSC1SCC2C(=O)N(C)C(C(C)C)C(=O)OCC(NC(=O)c3cnc4ccccc4n3)C(=O)NC(C)C(=O)N(C)C1C(=O)N(C)C(C(C)C)C(=O)OCC(NC(=O)c1cnc3ccccc3n1)C(=O)NC(C)C(=O)N2C (stereo unspecified) | 0.0075 µM (active) | 0.000374 µM (active) | – | 0.0104 µM (active) | 0.0075 µM (active) | – | 0.0075 µM (active) | –
8 | CS(C)(=O)=Nn1c(=O)n2n(c1=O)C1c3ccccc3C2c2ccccc21 | > 100 µM (inactive) | – | > 100 µM (inactive) | – | – | – | – | –
9 | CN(C)C(=O)Oc1c(Br)cc(Br)cc1C(=O)OCc1ccccc1 | 26.4 µM (inactive) | – | 24.9 µM (inactive) | 19.1 µM (inactive) | 17.3 µM (inactive) | 19.3 µM (inactive) | 22.8 µM (inactive) | –
10 | O=C1CCCC/C1=C1/SC(=N/c2ccccc2)/C(=N\c2ccccc2)N1c1ccccc1 | 68.7 µM (inactive) | 78.3 µM (inactive) | > 100 µM (inactive) | – | – | – | – | –
11 | O=c1c(-c2ccccc2)c(SCCN2CCOCC2)n(-c2ccccc2)c(=S)n1-c1ccccc1 | 80.9 µM (inactive) | 62.2 µM (inactive) | > 100 µM (inactive) | – | – | – | – | –
12 | O=C(NNC(=S)Nc1ccccc1)c1nsc2ccccc12 | – | – | – | 24.9 µM (inactive) | 17.3 µM (inactive) | – | 30.8 µM (inactive) | –
13 | C1CSCCSCCSCCSC1 | > 100 µM (inactive) | > 100 µM (inactive) | – | – | – | – | – | –
14 | COc1ccc(/N=C\c2ccc(N(CCC#N)S(=O)(=O)c3ccccc3)cc2C)cc1 | – | – | 25.6 µM (inactive) | 13.2 µM (inactive) | – | > 100 µM (inactive) | 12 µM (inactive) | 59.8 µM (inactive)
15 | O=C(Nc1ccc([N+](=O)[O-])cc1)C(=O)C(C(=O)c1ccccc1F)C1OC(=O)c2ccccc21 (stereo unspecified) | – | – | – | 29 µM (inactive) | 23.8 µM (inactive) | 70.3 µM (inactive) | 33.9 µM (inactive) | 26 µM (inactive)
16 | CCNC(=S)NNC(=O)c1nsc2ccccc12 | – | – | – | 95.5 µM (inactive) | 97.5 µM (inactive) | – | 64.9 µM (inactive) | –
